In patent US9205046B2, “Enhanced stability of inverse thermal gelling composite hydrogels” (The Governing Council of the University of Toronto, priority 2005, dated 2015):
Entries after “also recorded” stand apart in the source; their conditions may differ.

Columns and labels:
[1] = In vitro drug release from HAMC hydrogels and composites; format: physicochemical; settings: for burst release from PLGA particles in composite versus free particles: composite 2:3 HMW HAMC
Procedure: Release profiles of each particle encapsulated drug were obtained by depositing approximately 150 mg of drug loaded 2:3 HMW HAMC into polypropylene sample tubes, warming to 37° C., and adding 600 μL warm aCSF. […] Particle loads were typically 30-40 mg PLGA per gram of composite. […] All sample aliquots were immediately frozen and stored at −20° C. until analysis. […] Each sample was thawed immediately prior to assay and clear supernatant analyzed for dissolved drug.

[2] = Characterization of drug loaded PLGA particles; format: physicochemical; settings: laser diffraction or dynamic light scattering
Procedure: PLGA microparticle synthesis was optimized for each factor encapsulated and thus synthesis varied slightly for each factor, described below for EGF, dbcAMP, IgG and α-chymotrypsin. Microparticle size was determined by laser diffraction (Mastersizer 2000™, Malvern Instruments, Malvern, UK): nanoparticle size was determined by dynamic light scattering (Zetasizer Nano ZS™, Malvern Instruments). Encapsulation efficiency was defined as the fraction of drug detected per unit mass of particle compared to the theoretical maximum. Particle yield is the mass of recovered particulate PLGA adjusted for drug content, divided by the initial PLGA mass. Drug loading is the mass fraction of drug in the particles expressed as microgram of drug per milligram of particles.
EGF content was determined by degrading the PLGA in 1 M NaOH for 24 h at 37° C., centrifuging the resulting suspension and assaying the supernatant for total protein using the BCA assay.
dbcAMP content was determined by DCM/water solvent extraction. PLGA was dissolved in DCM and extracted 3×. Aqueous dbcAMP concentration was determined by UV absorbance at 273 nm on a Nanodrop ND-1000™ (Thermo Fisher Scientific).
Protein content was determined based on a method by Wong [Wong, H. M., Wang, J. J., and Wang, C, In Vitro Sustained Release of Human Immunoglobulin G from Biodegradable Microspheres. Ind. Eng. Chem. Res., 2001. 40: p. 933-948]. […]

[3] = Drug diffusivity in HMW HAMC; format: physicochemical; settings: in 2:3 HMW HAMC
Description: The diffusivity of a given drug in HMW HAMC, D, was normalized to its diffusivity in water, Do, to determine the impact of HMW HAMC on molecular diffusion [N. A. Peppas, C. T. Reinhart, Solute diffusion in swollen membranes. 1. A new theory. J. Membr. Sci. 15 (3) (1983) 275-287. Approximations of D for NBQX, α-chymotrypsin, and IgG in HMW HAMC were estimated according to the one dimensional, unidirectional, thin film approximation for non-swelling samples at short times [J. Crank, The Mathematics of Diffusion, Clarendon Press, Oxford, 1956.]. Normalized diffusion coefficients were then determined with respect to previously reported values of Do according to:
[formula] Where Mt/M∞ is the cumulative mass of drug detected at time, t, divided by the total mass released and l is the sample thickness.
Approximately 100 mg of HAMC with a drug loading of 100-1000 μg/mL was deposited into a cylindrical sample tube to yield a gel with thickness of 0.3 cm and one exposed surface. Samples were warmed to 37° C. and combined with 900 μL of warm aCSF. The buffer was sampled with total replacement at 0.5, 1, 2, and 5 hours and analyzed and described below.

[4] = tested on: mature blood vessels in the dorsal horns of the injured spinal cord; test: Intrathecal FGF2 delivery with composite HAMC after compressive spinal cord injury, SMI-71 blood vessel count; format: in vivo, Sprague Dawley rats; settings: rat, moderate compressive SCI at T2, 10 μl intrathecal composite 1:3 HMW HAMC with FGF2 PLGA nanoparticles, 28 days
Procedure: Physical hydrogel blends of hyaluronan (HA) and methyl cellulose (MC) were prepared in aCSF at 1 wt % 2600 kg/mol HA and 3 wt % 300 kg/mol MC as previously reported (1:3 HMW HAMC [M. D. Baumann, C. E. Kang, J. C. Stanwick, Y. Wang, H. Kim, Y. Lapitsky, and M. S. Shoichet, An injectable drug delivery platform for sustained combination therapy, J Control Release. (2009)]. Briefly, MC and HA were sequentially mechanically dispersed in aCSF and allowed to dissolve at 4° C. To form composite 1:3 HMW HAMC, slurries of particles were added together for a final concentration of 100 mg/mL. PLGA nanoparticles were prepared from a w/o/w double emulsion as previously described [[…]], either as blank nanoparticles or encapsulating FGF2.
All animal procedures were performed in accordance with the Guide to the Care and Use of Experimental Animals (Canadian Council on Animal Care) and protocols were approved by the Animal Care Committee of the Research Institute of the University Health Network. […] Blood vessels were then counted in the dorsal horns of the spinal cord (See FIG. 8). Statistical significance was determined by ANOVA followed by Tukey's post-hoc test.

Compound | burst release from PLGA particles in composite versus free particles [1] | Particle Size (μm) [2] [μm] | normalized diffusion coefficient [3] | release mechanism of dissolved drug ([1]; dissolved in 2:3 HMW HAMC) | time to complete in vitro release of dissolved drug ([1]; dissolved in 2:3 HMW HAMC, aCSF, 37 °C) [days] | mature blood vessels in the dorsal horns (angiogenesis) [4] | duration of in vitro release of PLGA particle encapsulated drug ([1]; PLGA particles dispersed in composite 2:3 HMW HAMC) [days]
EGF: Recombinant human epidermal growth factor | atypical behaviour | 10 ± 2 |  |  |  |  | 
2,3-Dioxo-6-nitro-1,2,3,4-tetrahydrobenzo[f]quinoxaline-7-sulfonamide disodium salt [NBQX, reference compound] |  |  | ~0.1 | diffusion limited |  |  | 
FGF-2: Recombinant human basic fibroblast growth factor |  |  | ~0.1 | diffusion limited | ≤ 4 | results in angiogenesis; also recorded: enhanced blood vessels | 
CCCC(=O)Nc1ncnc2c1ncn2[C@@H]1O[C@@H]2COP(=O)([O-])O[C@H]2[C@H]1OC(=O)CCC.[Na+] [dbcAMP, N^6,2′-O-dibutyryladenosine 3′,5′-cyclic monophosphate sodium salt, reference compound] | reduction in burst release | 37 ± 14 |  |  |  |  | 28
